Patent publication US20120190615A1, “METHODS AND COMPOSITIONS FOR INDUCING WEIGHT LOSS” (Sanford-Burnham Medical Research Institute, priority 2011, published 2012)

Tested on: Mouse embryonic fibroblasts (MEFs)
Assay: Differentiation of mouse embryonic fibroblasts to a BAT lineage
Assay type: cell-based
Details: 3-day treatment, 7-10 days without induction cocktail, Oil Red O
Source text: Mouse embryonic fibroblasts (MEFs) resemble mesenchymal cells in their ability to differentiate into various mesenchymal lineages. To determine whether OX triggers commitment of embryonic fibroblasts to a BAT lineage, MEFs isolated at […] were exposed to a differentiation protocol involving a 3-day treatment with Orexin A and BMP-7, and differentiation in the absence of the standard induction cocktail of IBMX, thiazolidone, and indomethacin for a further 7-10 days.

For “orexin-A (EPLPDCCRQKTCSCRLYELLHGAGNHAAGILTL) [OX, human orexin A, cat; No. 24470, Anaspec]”, the “phenotype of treated MEFs” value was “adopted a BAT phenotype”.
